Data: ChEMBL document CHEMBL1150455, “Preparation and in vitro activities of naphthyl and indolyl ether derivatives of the FK-506 related immunosuppressive macrolide ascomycin” (Bioorg Med Chem Lett, 1996)

Experiments:
[1] = target: Peptidyl-prolyl cis-trans isomerase FKBP1A (Homo sapiens, UniProt P62942); assay: In vitro competitive binding to FK506 binding protein 12 versus tritiated FK-506.
[2] = system: T-cell; assay: In vitro inhibition of proliferation of PMA and ionomycin stimulated murine T cells.; type: functional, cell-based; settings: Mus musculus
[3] = system: T-cell; assay: In vitro inhibition of proliferation of PMA and ionomycin stimulated murine T cells; Antagonist; type: functional, cell-based, Mus musculus

Peptidyl-prolyl cis-trans isomerase FKBP1A, sequence (P62942 whole entry): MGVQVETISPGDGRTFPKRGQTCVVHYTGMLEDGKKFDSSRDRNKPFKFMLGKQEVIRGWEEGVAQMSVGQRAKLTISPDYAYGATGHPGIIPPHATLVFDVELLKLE

For `CC[C@@H]1/C=C(\C)C[C@H](C)[C@H](OC)[C@H]2O[C@@](O)(C(=O)C(=O)N3CCCC[C@H]3C(=O)O[C@H](/C(C)=C/[C@@H]3CC[C@@H](Oc4ccc5ccccc5c4)[C@H](OC)C3)[C@H](C)[C@@H](O)CC1=O)[C@H](C)C[C@@H]2OC`, the IC50 [1] was 74.8 nM and the IC50 [2] was 1.8 nM.
`CC[C@@H]1/C=C(\C)[C@@H](O)[C@H](C)[C@H](OC)[C@H]2O[C@@](O)(C(=O)C(=O)N3CCCC[C@H]3C(=O)O[C@H](/C(C)=C/[C@@H]3CC[C@@H](Oc4ccc5c(ccn5C)c4)[C@H](OC)C3)[C@H](C)[C@@H](O)CC1=O)[C@H](C)C[C@@H]2OC` showed an IC50 [1] of 2.8 nM and an IC50 [2] of 5.5 nM.
With `CC[C@@H]1/C=C(\C)[C@@H](O)[C@H](C)[C@H](OC)[C@H]2O[C@@](O)(C(=O)C(=O)N3CCCC[C@H]3C(=O)O[C@H](/C(C)=C/[C@@H]3CC[C@@H](O)[C@H](OC)C3)[C@H](C)[C@@H](O)CC1=O)[C@H](C)C[C@@H]2OC` the IC50 [1] was 0.7 nM and the IC50 [3] was “Antagonist”.
`CC[C@@H]1/C=C(\C)C[C@H](C)[C@H](OC)[C@H]2O[C@@](O)(C(=O)C(=O)N3CCCC[C@H]3C(=O)O[C@H](/C(C)=C/[C@@H]3CC[C@@H](Oc4ccc5c(ccn5C)c4)[C@H](OC)C3)[C@H](C)[C@@H](O)CC1=O)[C@H](C)C[C@@H]2OC` gave an IC50 [1] of 3.6 nM and an IC50 [2] of 0.2 nM.
Compound `CC[C@@H]1/C=C(\C)[C@@H](O)[C@H](C)[C@H](OC)[C@H]2O[C@@](O)(C(=O)C(=O)N3CCCC[C@H]3C(=O)O[C@H](/C(C)=C/[C@@H]3CC[C@@H](Oc4ccc5ccccc5c4)[C@H](OC)C3)[C@H](C)[C@@H](O)CC1=O)[C@H](C)C[C@@H]2OC` has an IC50 [2] of 10.2 nM.
`CC[C@@H]1/C=C(\C)C[C@H](C)[C@H](OC)[C@H]2O[C@@](O)(C(=O)C(=O)N3CCCC[C@H]3C(=O)O[C@H](/C(C)=C/[C@@H]3CC[C@@H](Oc4ccc5[nH]ccc5c4)[C@H](OC)C3)[C@H](C)[C@@H](O)CC1=O)[C@H](C)C[C@@H]2OC` showed an IC50 [1] of 5.1 nM and an IC50 [2] of 0.2 nM.
`C=CC[C@@H]1/C=C(\C)C[C@H](C)[C@H](OC)[C@H]2O[C@@](O)(C(=O)C(=O)N3CCCC[C@H]3C(=O)O[C@H](/C(C)=C/[C@@H]3CC[C@@H](O)[C@H](OC)C3)[C@H](C)[C@@H](O)CC1=O)[C@H](C)C[C@@H]2OC` was tested, and the IC50 [1] was 0.8 nM and the IC50 [2] was 0.2 nM.
With `CC[C@@H]1/C=C(\C)C[C@H](C)[C@H](OC)[C@H]2O[C@@](O)(C(=O)C(=O)N3CCCC[C@H]3C(=O)O[C@H](/C(C)=C/[C@@H]3CC[C@@H](O)[C@H](OC)C3)[C@H](C)[C@@H](O)CC1=O)[C@H](C)C[C@@H]2OC` the IC50 [1] was 1.6 nM and the IC50 [2] was 0.7 nM.
For `CC[C@@H]1/C=C(\C)C[C@H](C)[C@H](OC)[C@H]2O[C@@](O)(C(=O)C(=O)N3CCCC[C@H]3C(=O)O[C@H](/C(C)=C/[C@@H]3CC[C@@H](Oc4ccccc4)[C@H](OC)C3)[C@H](C)[C@@H](O)CC1=O)[C@H](C)C[C@@H]2OC`, the IC50 [1] was 10 nM and the IC50 [2] was 5.4 nM.
